According to US20150258101A1 (Proximagen Limited, priority 2014, published 2015):
Structures can show the parent of a compound that is named as a salt.

Target: T1, purified recombinantly expressed human SSAO (Homo sapiens, UniProt Q16853)
T1 construct: made in house
T1 sequence (Q16853 1-763): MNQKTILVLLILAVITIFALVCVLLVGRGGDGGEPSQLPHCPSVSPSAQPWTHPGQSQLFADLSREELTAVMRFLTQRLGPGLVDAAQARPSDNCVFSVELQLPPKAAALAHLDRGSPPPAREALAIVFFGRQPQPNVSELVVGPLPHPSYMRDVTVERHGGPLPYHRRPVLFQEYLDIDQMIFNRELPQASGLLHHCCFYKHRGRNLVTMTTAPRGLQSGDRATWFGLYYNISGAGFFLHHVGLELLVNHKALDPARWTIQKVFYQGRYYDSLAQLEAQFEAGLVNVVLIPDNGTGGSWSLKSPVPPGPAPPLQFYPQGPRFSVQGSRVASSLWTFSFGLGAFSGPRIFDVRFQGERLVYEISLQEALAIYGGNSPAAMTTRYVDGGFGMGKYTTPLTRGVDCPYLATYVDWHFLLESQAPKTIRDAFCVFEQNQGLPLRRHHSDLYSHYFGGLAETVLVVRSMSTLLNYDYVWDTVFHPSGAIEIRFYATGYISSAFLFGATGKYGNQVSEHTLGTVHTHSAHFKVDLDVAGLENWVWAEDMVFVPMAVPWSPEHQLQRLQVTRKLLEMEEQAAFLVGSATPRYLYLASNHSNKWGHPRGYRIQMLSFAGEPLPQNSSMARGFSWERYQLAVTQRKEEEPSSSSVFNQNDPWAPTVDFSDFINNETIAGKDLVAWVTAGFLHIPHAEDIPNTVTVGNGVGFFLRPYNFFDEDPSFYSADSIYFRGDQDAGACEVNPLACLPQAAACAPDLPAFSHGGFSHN
Assay: SSAO enzyme inhibition assay (benzylamine substrate; hydrogen peroxide/HRP-coupled or 14C aldehyde detection)
Format: biochemical
Conditions: SSAO inhibitory activity, RT
Protocol: All primary assays were performed at RT. with purified recombinantly expressed human SSAO. Enzyme was prepared essentially as described in Öhman et al. (Protein Expression and Purification 46 (2006) 321-331). In addition, secondary- and selectivity assays were performed using SSAO prepared from various tissues or purified rat recombinant SSAO. The enzyme activity was assayed with benzylamine as substrate by measuring either benzaldehyde production, using ^14C-labeled substrate, or by utilizing the production of hydrogen peroxide in a horseradish peroxidase (HRP) coupled reaction. Briefly, test compounds were dissolved in dimethyl sulfoxide (DMSO) to a concentration of 10 mM. Dose-response measurements were assayed by either creating 1:10 serial dilutions in DMSO to produce a 7 point curve or by making 1:3 serial dilutions in DMSO to produce 11 point curves.
In a horseradish peroxidase (HRP) coupled reaction, hydrogen peroxide oxidation of 10-acetyl-3,7-dihydroxyphenoxazine produced resorufin, which is a highly fluorescent compound (Zhout and Panchuk-Voloshina. Analytical Biochemistry 253 (1997) 169-174; Amplex® Red Hydrogen Peroxide/peroxidase Assay kit, Invitrogen A22188). Enzyme and compounds in 50 mM sodium phosphate, pH 7.4 were set to pre-incubate in flat-bottomed microtiter plates for approximately 15 min before initiating the reaction by addition of a mixture of HRP, benzylamine and Amplex reagent. Benzylamine concentration was fixed at a concentration corresponding to the Michaelis constant, determined using standard procedures. Fluorescence intensity was then measured at several time points during 1-2 h, exciting at 544 nm and reading the emission at 590 nm. For the human SSAO assay final concentrations of the reagents in the assay wells were: SSAO enzyme 1 ug/ml, benzylamine 100 uM, Amplex reagent 20 uM, HRP 0.1 U/mL and varying concentrations of test compound. The inhibition was measured as % decrease of the signal compared to a control without inhibitor (only diluted DMSO). The background signal from a sample containing no SSAO enzyme was subtracted from all data points. Data was fitted to a four parameter logistic model and IC50 values were calculated using the Graph Pad Prism 4 or XLfit 4 programs.
SSAO activity was assayed using 14C-labeled benzylamine and analysed by measuring radioactive benzaldehyde. In a white 96-well optiplate (Packard), 20 uL of diluted test compound was pre-incubated at room temperature with 20 uL SSAO enzyme for approximately 15 min with continuous agitation. All dilutions were made with PBS. The reaction was initiated by adding 20 uL of the benzylamine substrate solution containing [7-14C] Benzylamine hydrochloride (CFA589, GE Healthcare). The plate was incubated for 1 h as above after which the reaction was stopped by acidification (10 uL 1M aq HCl). Then 90 uL Micro Scint-E solution (Perkin-Elmer) was added to each well and the plate was continuously mixed for 15 min. Phase separation occurred instantly and activity was read in a Topcount scintillation counter (Perkin-Elmer). In the final reaction well, the human recombinant SSAO concentration was 10 ug/ml. In order to optimize sensitivity, the substrate concentration was decreased as compared to the HRP coupled assay in order to get a higher fraction of radioactive product. In the human SSAO assay, benzylamine concentration was 40 uM (0.2 uCi/mL). Data was analysed as above.

| Compound | IC50 [µM] |
| --- | --- |
| Clc1ccc(-n2c(-c3cnc(N4CCOCC4)cn3)nc3ccncc32)cc1 [Example 5, 4-{5-[3-(4-Chlorophenyl)-3H-imidazo[4,5-c]pyridin-2-yl]pyrazin-2-yl}morpholine] | 0.05 to 0.2 |
| O=C(c1ccc(-c2nc3ccncc3n2-c2ccc(Cl)cc2)cn1)N1CCOCC1 [Example 6, 4-({5-[3-(4-Chlorophenyl)-3H-imidazo[4,5-c]pyridin-2-yl]pyridin-2-yl}carbonyl) morpholine] | 0.2 to 1.2 |
| Fc1ccc(-n2c(-c3cnc(NCC4CC4)nc3)nc3ccncc32)cc1 [Example 9, N-(Cyclopropylmethyl)-5-[3-(4-fluorophenyl)-3H-imidazo [4,5-c]pyridin-2-yl]pyrimidin-2-amine] | < 0.05 |
| O=C(NC1CC1)c1ccc(-c2nc3ccncc3n2-c2ccc(Cl)cc2)cn1 [Example 14, 5-[3-(4-Chlorophenyl)-3H-imidazo[4,5-c]pyridin-2-yl]-N-cyclopropylpyridine-2-carboxamide] | 0.2 to 1.2 |
| Fc1ccc(-n2c(-c3ccc(C4CCOCC4)nn3)nc3ccncc32)cc1 [Example 15, 3-[3-(4-Fluorophenyl)-3H-imidazo[4,5-c]pyridin-2-yl]-6-(oxan-4-yl)pyridazine] | 0.05 to 0.2 |
| Clc1ccc(-n2c(-c3csc(N4CCNCC4)n3)nc3ccncc32)cc1 [Example 17, 1-{4-[3-(4-Chlorophenyl)-3H-imidazo[4,5-c]pyridin-2-yl]-1,3-thiazol-2-yl}piperazine dihydrochloride] | 0.2 to 1.2 |
| Cc1cc(N2CCOCC2)ncc1-c1nc2ccncc2n1-c1ccc(Cl)cc1F [Example 22, 4-{5-[3-(4-Chloro-2-fluorophenyl)-3H-imidazo [4,5-c]pyridin-2-yl]-4-methylpyridin-2-yl}morpholine] | < 0.05 |
| Fc1ccc(-n2c(-c3cnc(N4CCCOCC4)nc3)nc3ccncc32)cc1 [Example 25, 4-{5-[3-(4-Fluorophenyl)-3H-imidazo[4,5-c]pyridin-2-yl]pyrimidin-2-yl}-1,4-oxazepane] | < 0.05 |
| Cc1nc(N2CCOCC2)ncc1-c1nc2ccncc2n1-c1ccc(F)cc1 [Example 26, 4-{5-[3-(4-Fluorophenyl)-3H-imidazo[4,5-c]pyridin-2-yl]-4-methylpyrimidin-2-yl} morpholine] | 0.05 to 0.2 |
| Cc1nc(N2CCOCC2)ncc1-c1nc2ccncc2n1-c1ccc(Cl)cc1F [Example 27, 4-{5-[3-(4-Chloro-2-fluorophenyl)-3H-imidazo [4,5-c]pyridin-2-yl]-4-methylpyrimidin-2-yl} morpholine] | < 0.05 |
| COc1nc(N2CCOCC2)ccc1-c1nc2ccncc2n1-c1ccc(F)cc1 [Example 28, 4-{5-[3-(4-Fluorophenyl)-3H-imidazo[4,5-c]pyridin-2-yl]-6-methoxypyridin-2-yl} morpholine] | 0.05 to 0.2 |
| Fc1ccc(-n2c(-c3cnc(C4CC4)nc3)nc3ccncc32)cc1 [Example 30, 2-Cyclopropyl-5-[3-(4-fluorophenyl)-3H-imidazo [4,5-c]pyridin-2-yl]pyrimidine] | 0.2 to 1.2 |
| Nc1ncc(-c2nc3ccncc3n2-c2ccc(Cl)cc2)cn1 [Example 31, 5-[3-(4-Chlorophenyl)-3H-imidazo[4,5-c]pyridin-2-yl] pyrimidin-2-amine] | 0.2 to 1.2 |
| Cn1cc(-c2nc3ccncc3n2-c2ccc(Cl)cc2)ccc1=O [Example 33, 5-[3-(4-Chlorophenyl)-3H-imidazo[4,5-c]pyridin-2-yl]-1-methyl-1,2-dihydropyridin-2-one] | 0.2 to 1.2 |

Continued, values first:

| IC50 [µM] | Compound |
| --- | --- |
| 0.2 to 1.2 | Clc1ccc(-n2c(-c3cccnc3)nc3ccncc32)cc1 [Example 1, 3-[3-(4-Chlorophenyl)-3H-imidazo[4,5-c]pyridin-2-yl]pyridine] |
| 0.05 to 0.2 | Clc1ccc(-n2c(-c3cnc(NC4CCOCC4)cn3)nc3ccncc32)cc1 [Example 7, 5-[3-(4-Chlorophenyl)-3H-imidazo[4,5-c]pyridin-2-yl]-N-(oxan-4-yl)pyrazin-2-amine] |
| < 0.05 | NC1CCN(c2ccc(-c3nc4ccncc4n3-c3ccc(Cl)cc3)cn2)CC1 [Example 8, 1-{5-[3-(4-Chlorophenyl)-3H-imidazo[4,5-c]pyridin-2-yl]pyridin-2-yl}piperidin-4-amine] |
| 0.05 to 0.2 | Fc1ccc(-n2c(-c3cnc(NC4CC4)nc3)nc3ccncc32)cc1 [Example 10, N-Cyclopropyl-5-[3-(4-fluorophenyl)-3H-imidazo [4,5-c]pyridin-2-yl]pyrimidin-2-amine] |
| 0.2 to 1.2 | CS(=O)(=O)Nc1ccc(-c2nc3ccncc3n2-c2ccc(Cl)cc2)cn1 [Example 16, N-{5-[3-(4-Chlorophenyl)-3H-imidazo[4,5-c]pyridin-2-yl]pyridin-2-yl} methanesulfonamide] |
| 0.05 to 0.2 | Clc1ccc(-n2c(-c3cnc(N4CCNCC4)s3)nc3ccncc32)cc1 [Example 19, 1-{5-[3-(4-Chlorophenyl)-3H-imidazo[4,5-c]pyridin-2-yl]-1,3-thiazol-2-yl}piperazine] |
| 0.2 to 1.2 | Cc1cc(N2CCOCC2)nc(C)c1-c1nc2ccncc2n1-c1ccc(F)cc1 [Example 29, 4-{5-[3-(4-Fluorophenyl)-3H-imidazo[4,5-c]pyridin-2-yl]-4,6-dimethylpyridin-2-yl} morpholine] |
| < 0.05 | Cn1ccc(-c2nc3ccncc3n2-c2ccc(Cl)cc2)cc1=O [Example 32, 4-[3-(4-Chlorophenyl)-3H-imidazo[4,5-c]pyridin-2-yl]-1-methyl-1,2-dihydropyridin-2-one] |
| 0.05 to 0.2 | O=c1cc(-c2nc3ccncc3n2-c2ccc(Cl)cc2F)cc[nH]1 [Example 34, 4-[3-(4-Chloro-2-fluorophenyl)-3H-imidazo[4,5-c]pyridin-2-yl]-1,2-dihydropyridin-2-one] |
| 0.2 to 1.2 | O=c1ccc(-c2nc3ccncc3n2-c2ccc(Cl)cc2F)c[nH]1 [Example 35, 5-[3-(4-Chloro-2-fluorophenyl)-3H-imidazo[4,5-c]pyridin-2-yl]-1,2-dihydropyridin-2-one] |
| 0.05 to 0.2 | Cc1ccc(-n2c(-c3cnc(N4C[C@@H](C)O[C@@H](C)C4)nc3)nc3ccncc32)nc1 [Example 36, (2R,6S)-2,6-Dimethyl-4-{5-[3-(5-methylpyridin-2-yl)-3H-imidazo[4,5-c]pyridin-2-yl]pyrimidin-2-yl}morpholine] |
| < 0.05 | COCCCNc1ncc(-c2nc3ccncc3n2-c2ccc(C)cc2)cn1 [Example 37, N-(3-Methoxypropyl)-5-[3-(4-methylphenyl)-3H-imidazo [4,5-c]pyridin-2-yl]pyrimidin-2-amine] |
| 0.05 to 0.2 | CC(C)OCCNc1ncc(-c2nc3ccncc3n2-c2ccc(F)cc2)cn1 [Example 38, 5-[3-(4-Fluorophenyl)-3H-imidazo[4,5-c]pyridin-2-yl]-N-[2-(propan-2-yloxy)ethyl] pyrimidin-2-amine] |
| < 0.05 | Cc1ccc(-n2c(-c3cnc(NCCOC(C)C)nc3)nc3ccncc32)cc1 [Example 39, 5-[3-(4-Methylphenyl)-3H-imidazo[4,5-c]pyridin-2-yl]-N-[2-(propan-2-yloxy)ethyl] pyrimidin-2-amine] |
